Values joined by “and” are separate entries in the source; they are usually repeats but may differ in a detail not shown here. Identical values can stand only once. Active and inactive are the calls of the source.
Legend:
Cytochrome P450 2C19 = Cytochrome P450 2C19 (Homo sapiens, UniProt P33261); experiment: Cytochrome panel assay with activity outcomes. Panel member name: p450-cyp2c19 Compounds with AC50 equal or less than 10 uM are considered active; type: functional
Cytochrome P450 3A4 = Cytochrome P450 3A4 (Homo sapiens, UniProt P08684);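 note: CYP3A4 tested as one member of a cytochrome P450 panel screen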
[1] = target: T1, Rac GTPase-activating protein 1 (Homo sapiens, UniProt Q9H0H5); experiment: blockers of MgcRacGAP-driven Rac1 GTP hydrolysis – biochemical, ADP Hunter fluorescence, primary and confirmatory, confirmation (AID 624330); type: functional
T1 sequence (Q9H0H5 whole entry): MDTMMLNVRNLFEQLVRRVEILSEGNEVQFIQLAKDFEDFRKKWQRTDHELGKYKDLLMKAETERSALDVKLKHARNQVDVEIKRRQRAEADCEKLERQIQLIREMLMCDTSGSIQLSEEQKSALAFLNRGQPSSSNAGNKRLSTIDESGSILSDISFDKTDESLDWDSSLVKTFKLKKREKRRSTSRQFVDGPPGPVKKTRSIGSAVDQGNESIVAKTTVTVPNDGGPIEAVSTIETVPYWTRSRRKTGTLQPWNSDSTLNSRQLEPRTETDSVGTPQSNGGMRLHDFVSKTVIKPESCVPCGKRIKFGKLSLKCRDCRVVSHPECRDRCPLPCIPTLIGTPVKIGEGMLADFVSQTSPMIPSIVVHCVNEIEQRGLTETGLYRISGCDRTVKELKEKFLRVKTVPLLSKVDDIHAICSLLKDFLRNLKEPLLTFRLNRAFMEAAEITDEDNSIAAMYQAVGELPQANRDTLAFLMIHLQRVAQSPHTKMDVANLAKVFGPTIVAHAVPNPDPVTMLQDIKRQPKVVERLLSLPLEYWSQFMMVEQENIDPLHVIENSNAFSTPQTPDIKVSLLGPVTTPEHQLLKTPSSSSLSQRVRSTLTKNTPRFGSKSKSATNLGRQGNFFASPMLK

Cytochrome P450 1A2 = target: T2, Cytochrome P450 1A2 (Homo sapiens, UniProt P05177);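 note: PubChem cytochrome P450 panel assay, CYP1A2 panel member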
T2 sequence (P05177 whole entry): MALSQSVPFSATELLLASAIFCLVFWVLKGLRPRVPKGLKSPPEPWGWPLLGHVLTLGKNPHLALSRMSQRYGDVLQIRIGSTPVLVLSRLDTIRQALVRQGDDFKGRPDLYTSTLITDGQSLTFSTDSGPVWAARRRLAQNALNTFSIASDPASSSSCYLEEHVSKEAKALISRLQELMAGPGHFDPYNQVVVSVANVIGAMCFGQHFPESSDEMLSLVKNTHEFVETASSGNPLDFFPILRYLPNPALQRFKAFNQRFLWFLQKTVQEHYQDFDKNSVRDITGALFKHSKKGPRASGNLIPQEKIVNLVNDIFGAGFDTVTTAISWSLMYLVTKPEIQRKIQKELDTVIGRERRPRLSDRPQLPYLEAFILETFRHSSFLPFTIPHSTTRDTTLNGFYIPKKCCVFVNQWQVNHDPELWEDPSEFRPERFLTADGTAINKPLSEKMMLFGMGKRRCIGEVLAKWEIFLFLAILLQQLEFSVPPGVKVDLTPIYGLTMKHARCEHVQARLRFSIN

Cytochrome P450 2C9 = Cytochrome P450 2C9 (Homo sapiens, UniProt P11712)
[2] = luciferase reporter signal suppression in cells – H4 neuroglioma cells, luminescence, dose response (AID 1990); type: functional, cell-based
[3] = Luminescence Cell-Based Dose Response HTS to Identify Inhibitors of 5'UTR Stem-Loop Driven Prion Protein mRNA Translation in H4 Neuroglioblastoma Cells. [Related pubchem assays: 1827 (Project Summary), 1813 (Primary HTS)]; type: functional
[4] = alpha-synuclein stem-loop luciferase translation blockers – H4 neuroglioma cells, luminescence, confirmation (AID 1988); type: functional, cell-based
H4 = experiment: Luminescence Cell-Based Dose Response HTS to Identify Activators of 5'UTR Stem-Loop Driven Prion Protein mRNA Translation in H4 Neuroglioblastoma Cells. [Related pubchem assays: 1829 (Project Summary), 1814 (Primary HTS)]; type: functional; conditions: Homo sapiens
[5] = tested on: Streptococcus sp. 'group A'; experiment: Streptococcus pyogenes SK(-)GAS viability under kanamycin – luminescence, BacTiterGlo, confirmation, counter-screen for streptokinase expression inhibitor project, dose response (AID 1900); type: functional, organism-based
Streptokinase A = target: T3, Streptokinase A (Streptococcus pyogenes serotype M1, UniProt P10520); experiment: viability-normalized secreted streptokinase activity reduction – plasminogen activation absorbance, OD405, dose response (AID 1914); type: functional, Streptococcus pyogenes M1 GAS;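 note: secreted streptokinase activity via plasminogen activation per viability signal from cell pellet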
T3 sequence (P10520 whole entry): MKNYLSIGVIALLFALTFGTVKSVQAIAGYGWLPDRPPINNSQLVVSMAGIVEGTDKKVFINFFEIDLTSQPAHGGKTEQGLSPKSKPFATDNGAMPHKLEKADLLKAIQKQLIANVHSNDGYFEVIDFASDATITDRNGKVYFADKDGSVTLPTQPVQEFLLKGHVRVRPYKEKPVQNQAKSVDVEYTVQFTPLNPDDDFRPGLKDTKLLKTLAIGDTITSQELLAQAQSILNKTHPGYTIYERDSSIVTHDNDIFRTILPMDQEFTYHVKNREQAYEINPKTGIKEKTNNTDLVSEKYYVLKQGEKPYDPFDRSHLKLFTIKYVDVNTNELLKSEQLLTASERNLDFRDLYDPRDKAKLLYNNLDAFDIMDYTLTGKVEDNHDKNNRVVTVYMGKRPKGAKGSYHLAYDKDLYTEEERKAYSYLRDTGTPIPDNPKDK

Streptococcus = experiment: GAS UMAA2166 growth inhibition – luminescence, BacTiterGlo, counter-screen for streptokinase expression inhibitor project, dose response (AID 1915); type: functional, organism-based;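 note: potency for reduction of bacterial viability or growth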

Cytochrome P450 2C19, sequence (P33261 whole entry): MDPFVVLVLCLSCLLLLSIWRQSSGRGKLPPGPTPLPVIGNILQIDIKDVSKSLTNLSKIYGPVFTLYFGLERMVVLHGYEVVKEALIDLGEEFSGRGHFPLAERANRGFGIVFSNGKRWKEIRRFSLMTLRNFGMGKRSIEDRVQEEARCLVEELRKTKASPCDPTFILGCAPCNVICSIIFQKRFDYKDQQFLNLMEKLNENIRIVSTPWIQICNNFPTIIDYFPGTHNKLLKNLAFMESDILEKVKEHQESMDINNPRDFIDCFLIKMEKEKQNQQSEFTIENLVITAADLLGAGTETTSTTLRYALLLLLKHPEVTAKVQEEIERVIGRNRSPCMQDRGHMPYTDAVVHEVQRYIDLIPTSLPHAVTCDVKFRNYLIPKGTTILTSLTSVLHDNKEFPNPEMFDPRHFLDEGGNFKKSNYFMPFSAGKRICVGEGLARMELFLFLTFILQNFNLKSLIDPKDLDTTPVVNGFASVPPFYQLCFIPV
Cytochrome P450 2C9, sequence (P11712 whole entry): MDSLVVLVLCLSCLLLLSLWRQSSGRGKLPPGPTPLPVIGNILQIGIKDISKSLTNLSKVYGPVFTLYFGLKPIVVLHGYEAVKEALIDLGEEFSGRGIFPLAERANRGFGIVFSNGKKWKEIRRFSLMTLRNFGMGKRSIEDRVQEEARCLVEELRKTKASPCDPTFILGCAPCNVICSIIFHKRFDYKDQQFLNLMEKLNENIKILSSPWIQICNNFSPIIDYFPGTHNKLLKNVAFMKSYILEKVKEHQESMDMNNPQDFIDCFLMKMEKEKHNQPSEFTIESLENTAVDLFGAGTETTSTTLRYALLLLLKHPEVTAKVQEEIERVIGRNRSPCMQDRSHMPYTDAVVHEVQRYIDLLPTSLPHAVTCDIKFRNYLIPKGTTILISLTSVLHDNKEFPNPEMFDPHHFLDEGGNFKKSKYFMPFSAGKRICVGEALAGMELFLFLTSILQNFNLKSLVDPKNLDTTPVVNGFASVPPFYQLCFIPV
Cytochrome P450 3A4, sequence (P08684 whole entry): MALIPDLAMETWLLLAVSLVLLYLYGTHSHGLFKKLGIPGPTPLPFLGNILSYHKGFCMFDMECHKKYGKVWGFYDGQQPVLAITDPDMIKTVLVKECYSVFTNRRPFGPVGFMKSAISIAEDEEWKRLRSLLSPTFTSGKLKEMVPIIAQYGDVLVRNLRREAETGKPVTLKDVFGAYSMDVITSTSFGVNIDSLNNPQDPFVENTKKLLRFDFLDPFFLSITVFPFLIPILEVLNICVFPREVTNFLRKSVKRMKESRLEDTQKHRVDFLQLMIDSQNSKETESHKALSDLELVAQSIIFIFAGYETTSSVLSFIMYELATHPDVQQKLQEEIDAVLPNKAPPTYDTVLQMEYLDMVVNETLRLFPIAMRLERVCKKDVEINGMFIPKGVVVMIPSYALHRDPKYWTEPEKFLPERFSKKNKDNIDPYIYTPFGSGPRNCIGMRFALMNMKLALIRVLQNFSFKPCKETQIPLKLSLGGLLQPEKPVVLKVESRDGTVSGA

## O=[N+]([O-])c1ccc2nc(N3CCNCC3)ccc2c1 [6-NITROQUIPAZINE]
Cytochrome P450 2C19
  AC50: inconclusive
Cytochrome P450 3A4
  AC50: 10 µM (inconclusive)

## COc1ccccc1N1CCN(Cc2cccc(Br)c2)CC1
[1]
  IC50: 130 µM (active)

## O=[N+]([O-])c1ccc2c(c1)N=C1O[C@H](c3c[nH]c4ccc(COc5ccccc5)cc34)C(O)=C1N2
Cytochrome P450 2C19; read-out: AC50
  AC50: 3.16 µM (inconclusive)
Cytochrome P450 3A4
  AC50: 3.16 µM (inconclusive)

## Oc1nc(N2CCCCCC2)nc(N2CCCCCC2)n1
Cytochrome P450 2C19; read-out: AC50
  AC50: 5.62 µM (inconclusive)
Cytochrome P450 1A2
  AC50: 22.4 µM (inconclusive)

## O=C(COc1ccccc1)Nc1ccc(-c2nnc(-c3ccco3)o2)cc1
Cytochrome P450 2C19; read-out: AC50
  AC50: 10 µM (inconclusive)
Cytochrome P450 2C9
  AC50: 1.78 µM (inconclusive)

## COc1ccc(/C=C(/C(=O)Nc2ccccc2C(=O)NC(C)C)c2ccccc2)cc1
[2]
  EC50: 13.7 µM (active)
[3]
  EC50: 83.5 µM (active)
[4]
  EC50: 30.2 µM (active)

## COc1ccc(C(=O)/C=C/c2ccc(O)cc2)c2c1CC(O)C(C)(C)O2 (centres undefined)
[1]
  IC50: 56.9 µM (active)

## COc1cccc(Cn2c(=O)c(CCc3ccccc3)nc3cnc(N(C)C)nc32)c1
Cytochrome P450 3A4
  AC50: 2.51 µM (inconclusive)

## CCOC(=O)c1c(C)[nH]c(C)c1C(=O)CSc1nc2ccccc2c(=O)n1-c1ccc(C)cc1
[2]
  EC50: 13.4 µM (active)
[3]
  EC50: > 120 µM (not active)
[4]
  EC50: > 120 µM (not active)

## CN(Cc1ccccc1)C(=O)CC(c1ccccc1)c1cc(Cl)ccc1O (centres undefined)
Cytochrome P450 1A2
  AC50: 25.1 µM (inconclusive)

## CCCCN(C)CCNC(=O)CSCc1ccc(C)cc1
[1]
  IC50: 220 µM (active)

## COc1cc(/C(C)=N/NC(=O)C(O)(c2ccccc2)c2ccccc2)ccc1O
[1]
  IC50: 104 µM (active)

## COc1ccc(N2CCN(C(=O)c3ccc(C[S+]([O-])c4cccc(Cl)c4)o3)CC2)cc1 (centres undefined)
[1]
  IC50: 326 µM (active)

## CN(C)S(=O)(=O)c1ccc(Cl)c(NC(=O)COC(=O)CN2C(=O)C3CCCCC3C2=O)c1 (centres undefined)
[2]
  EC50: > 120 µM (not active)
[3]
  EC50: > 120 µM (not active)
[4]
  EC50: > 120 µM (not active)

## c1ccc([C@H]2CNCc3ccccc32)cc1
Cytochrome P450 3A4
  AC50: 15.8 µM (inconclusive)

## Cc1cc(O)c(C)c(O)c1/C=N/NC(=O)c1cccnc1
[1]
  IC50: 101 µM (active)

## COc1ccc(C2CC(c3ccc4ccccc4c3)=NN2C(=O)COC(=O)C2CCC(=O)N2)cc1 (centres undefined)
H4
  EC50: 66.5 µM (active)

## O=C(Nc1ccccc1)c1cc([N+](=O)[O-])ccc1NC1CCCCC1
[2]
  EC50: 16.4 µM (active)
[3]
  EC50: > 120 µM (not active)
[4]
  EC50: > 120 µM (not active)

## O=C(Nc1cccc(OC(=O)c2cccnc2)c1)c1cccnc1
Cytochrome P450 2C9
  AC50: 28.2 µM (inconclusive)

## COc1cc(OC)cc(C(=O)NC(=S)Nc2ccc(Cl)c(C(=O)O)c2)c1
Cytochrome P450 2C9
  AC50: 12.6 µM (inconclusive)

## COc1ccccc1/C=C(/C(=O)OCC(=O)Nc1ccc(N(C)C)cc1)c1ccccc1
[1]
  IC50: 61 µM (active)

## NCCCCCCNS(=O)(=O)c1cccc2ccccc12
Cytochrome P450 1A2
  AC50: 25.1 µM (inconclusive)
Cytochrome P450 2C9
  AC50: 0.2 µM (inconclusive)

## COc1ccc(C(=O)N/C(=C/c2cccs2)C(=O)NCCCn2ccnc2)cc1OC
Cytochrome P450 2C19; read-out: AC50
  AC50: 8.91 µM (inconclusive)
Cytochrome P450 2C9
  AC50: 5.01 µM (inconclusive)

## Fc1ccccc1Nc1nnc(S)s1
[1]
  IC50: 54.3 µM (active)

## NS(=O)(=O)c1nc(S(=O)(=O)O)c2[nH]cnc2n1
Cytochrome P450 2C19
  AC50: inconclusive
Cytochrome P450 1A2
  AC50: 5.01 µM (inconclusive)

## Fc1ccc(C(OCCN2CCN(C/C=C\c3ccccc3)CC2)c2ccc(F)cc2)cc1
Cytochrome P450 1A2
  AC50: 31.6 µM (inconclusive)
Cytochrome P450 3A4
  AC50: 15.8 µM (inconclusive)

## COc1cc(N=Nc2ccc(C(=O)N(C)C)cc2)c(C)cc1N
[1]
  IC50: 52.9 µM (active)

## CC(=O)NN1C(=O)/C(=C\c2ccc(O)cc2)SC1=S
[1]
  IC50: 121 µM (active)

## CN(C)c1ccc(-c2cc(-n3ccnc3)ncn2)cc1
Cytochrome P450 2C9
  AC50: 0.794 µM (inconclusive)

## COc1cc(/C=C2/C(=N)N3OC(C)=CC3=NC2=O)ccc1OCCOc1ccc(C)cc1
Cytochrome P450 2C19; read-out: AC50
  AC50: 4.47 µM (inconclusive)
Cytochrome P450 3A4
  AC50: 11.2 µM (inconclusive)

## COc1cccc(CN2CCN(Cc3cccc(F)c3)CC2)c1
[1]
  IC50: 86 µM (active)

## CCOC(=O)c1oc2cc(OC(C)=O)ccc2c(=O)c1-c1ccc(OC)c(OC)c1
[2]
  EC50: > 120 µM (not active)
[3]
  EC50: > 120 µM (not active)
[4]
  EC50: > 120 µM (not active)

## CO[C@@H]1/C=C\O[C@]2(C)Oc3c(C)c(O)c4c(O)c(c(CN5CCN(C)CC5)c(O)c4c3C2=O)NC(=O)/C(C)=C\C=C[C@@H](C)[C@@H](O)[C@H](C)[C@@H](O)[C@H](C)[C@H](OC(C)=O)[C@@H]1C
Cytochrome P450 2C9
  AC50: 6.31 µM (inconclusive)

## ClC1(Cl)CC1Cn1c(C2CC2)nc2ccccc21 (centres undefined)
[2]
  EC50: > 120 µM (not active)
[3]
  EC50: > 120 µM (not active)
[4]
  EC50: > 120 µM (not active)

## CCOc1ccc(OCC)c(-c2c(=O)n(OCc3ccc(C(C)(C)C)cc3)c3ccccc3[n+]2[O-])c1
Cytochrome P450 3A4
  AC50: 12.6 µM (inconclusive)

## CCN=C(S)Nc1cc(Cl)ccc1Oc1ccccc1
[2]
  EC50: > 120 µM (not active)
[3]
  EC50: > 120 µM (not active)
[4]
  EC50: > 120 µM (not active)

## CCC/C=C(\CCC)C(NP(=O)(c1ccccc1)c1ccccc1)c1ccc(-c2ccccc2)cc1 (centres undefined)
Cytochrome P450 1A2
  AC50: 2.51 µM (inconclusive)

## C=C1C(=O)O[C@@H]2[C@@H]1CC/C(C)=C\CC[C@@]1(C)O[C@H]21
Cytochrome P450 3A4
  AC50: 20 µM (inconclusive) and 12.6 µM (inconclusive)

## O=C1C2CCCN2C(c2ccccc2F)N1c1ccc(Cl)cc1 (centres undefined)
Cytochrome P450 1A2
  AC50: 2 µM (inconclusive)
Cytochrome P450 3A4
  AC50: 14.1 µM (inconclusive)
Cytochrome P450 2C9
  AC50: 39.8 µM (inconclusive)

## CCc1ccc(/C=C2/C(=O)N(c3ccccc3)C(=S)N2CC(=O)OC)s1
[2]
  EC50: > 120 µM (not active)
[3]
  EC50: 11.2 µM (active)
[4]
  EC50: 14.4 µM (active)

## CC(C)CN(Cc1cc(=O)oc2cc(-c3ccccc3)c(O)cc12)CC(C)C
[2]
  EC50: 12.1 µM (active)
[5]
  EC50: 5.29 µM (active)
[3]
  EC50: > 120 µM (not active)
[4]
  EC50: > 120 µM (not active)
Streptokinase A
  EC50: 2.43 µM (active)
Streptococcus
  EC50: 14.3 µM (active)

## COc1ccc(NC2CCCN(C(=O)c3ccccc3C(F)(F)F)C2)cc1 (centres undefined)
[1]
  IC50: 75.2 µM (active)

## CSc1nncc(-c2ccc(F)c(F)c2)n1
Cytochrome P450 2C9
  AC50: 28.2 µM (inconclusive)

## Cc1c(NC(=O)C23CC4CC(CC(C)(C4)C2)C3)c(=O)n(-c2ccccc2)n1C
Cytochrome P450 2C19
  AC50: inconclusive
Cytochrome P450 3A4
  AC50: 31.6 µM (inconclusive)

## COc1ccc(NC(=O)N2CC[C@@]3(CCCN(C(=O)c4cccc(F)c4)C3)C2)cc1
Cytochrome P450 1A2
  AC50: 25.1 µM (inconclusive)
Cytochrome P450 3A4
  AC50: 15.8 µM (inconclusive)
